Assay results: PMC8344021, “Discovery of Small Molecule Bak Activator for Lung Cancer Therapy” (Theranostics, 2021)

Target: T1, human Bak protein (Homo sapiens, UniProt Q16611)
T1 construct: purchased Creative Biomart BAK1-26166TH
Test: Competitive fluorescence polarization (FP) assay with fluorescent Bak BH3 peptide
Assay type: binding
Settings: purified human Bak protein, fluorescent Bak BH3 domain peptide; mean ± SD, n = 3
Source text: To confirm the binding of BKA-073 with Bak, we first conducted a competitive fluorescence polarization (FP) assay using purified human Bak protein, fluorescent Bak BH3 domain peptide, and BKA-073 as described, [37]-[40]. […] There are multiple amino acid differences in the BH3 domains between Bak and other Bcl2 family members, which helps to explain why BKA-073 only binds to Bak but not to other Bcl2 family members (i.e. Bax, Bcl2, Bcl-XL, Bcl-w and Mcl-1). In addition to the FP assay, isothermal titration calorimetry (ITC) was also employed to measure Bak/BKA-073 binding. […] In addition to human Bak/BKA-073 binding, we measured mouse Bak/BKA-073 binding using ITC.
(1 x 10^5 cells) was transferred to a 5 ml culture tube, followed by the addition of 5 μl of FITC Annexin V and 5 μl propidium iodide (PI). […] Samples were analyzed by flow cytometry (BD FACSCantoTMII, BD Biosciences, San Jose, CA). ∆% cell death was calculated with the formula: (% cell death treated - % cell death non-treated) as described […]
Fluorescence polarization (FP) assay
Fluorescence polarization assay was carried out as described previously. […] The FP values (in millipolarization units) were measured using a fluorescence microplate reader at 485/530 nm (Gemini XPS, Molecular Devices). Data analysis and inhibit ory constant (Ki) value was determined by GraphPad prism software as described. […]

T1 sequence (Q16611 whole entry): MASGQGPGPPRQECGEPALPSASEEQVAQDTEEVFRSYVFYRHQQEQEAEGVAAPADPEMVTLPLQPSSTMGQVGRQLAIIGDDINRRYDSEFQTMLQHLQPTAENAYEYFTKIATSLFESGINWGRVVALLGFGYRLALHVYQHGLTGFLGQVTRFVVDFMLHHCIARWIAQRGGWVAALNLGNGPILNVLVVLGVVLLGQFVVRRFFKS

Question: With COc1ccc2nc3ccccc3c(NCCNCC(C)O)c2c1 (stereo not shown) [BKA-073] as the compound, how does the Ki read?
Answer: 0.0723 ± 0.00596 µM
